In US10435396B2, “2-substituted indazoles, methods for producing same, pharmaceutical preparations that contain same, and use of same to produce drugs” (Bayer Pharma Aktiengesellschaft, priority 2016, dated 2019) one finds IC50 data, which are given here for 18 compounds.

Sequence of human IRAK4 (Q9NWZ3 whole entry): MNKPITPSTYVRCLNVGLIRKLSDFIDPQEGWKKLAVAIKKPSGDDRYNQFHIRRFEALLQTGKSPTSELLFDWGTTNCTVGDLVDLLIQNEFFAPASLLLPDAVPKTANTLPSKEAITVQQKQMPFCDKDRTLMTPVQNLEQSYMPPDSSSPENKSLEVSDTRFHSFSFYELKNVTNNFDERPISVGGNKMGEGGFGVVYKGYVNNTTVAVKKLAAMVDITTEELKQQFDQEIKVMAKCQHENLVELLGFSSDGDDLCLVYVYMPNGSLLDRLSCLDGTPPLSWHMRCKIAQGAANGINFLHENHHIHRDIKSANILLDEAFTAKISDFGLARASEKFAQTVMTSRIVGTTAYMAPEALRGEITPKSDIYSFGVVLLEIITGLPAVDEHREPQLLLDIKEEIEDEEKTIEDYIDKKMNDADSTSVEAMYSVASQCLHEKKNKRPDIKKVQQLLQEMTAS

The target of one test is human IRAK4 (Homo sapiens (Human), UniProt Q9NWZ3). Put plainly: IRAK4 kinase assay (IRAK4 TR-FRET assay). The conditions noted are these: 1 mM ATP. Format: biochemical. The method, then:
The IRAK4-inhibitory activity of the substances according to the invention was measured in the IRAK4 TR-FRET assay (TR-FRET=Time Resolved Fluorescence Resonance Energy Transfer) described hereinafter.
Recombinant fusion protein from N-terminal GST (glutathione S-transferase) and human IRAK4, expressed in baculovirus-infected insect cells (Hi5, BTI-TN-5B1-4, cell line purchased from Invitrogen, catalogue No. B855-02) and purified via affinity chromatography, was used as enzyme. The substrate used for the kinase reaction was the biotinylated peptide biotin-Ahx-[…] (C-terminus in amide form) which can be purchased, for example, from Biosyntan GmbH (Berlin-Buch).
For the assay, 11 different concentrations in the range from 20 μM to 0.073 nM were prepared from a 2 mM solution of the test substance in DMSO. 50 nl of the respective solution were pipetted into a black low-volume 384-well microtitre plate (Greiner Bio-One, Frickenhausen, Germany), 2 μl of a solution of IRAK4 in assay buffer [50 mM HEPES pH 7.5, 5 mM MgCl2, 1.0 mM dithiothreitol, 30 μM activated sodium orthovanadate, 0.1% (w/v) of bovine gamma-globulin (BGG) 0.04% (v/v) nonidet-P40 (Sigma)] were added and the mixture was incubated for 15 min to allow prebinding of the substances to the enzyme prior to the kinase reaction. The kinase reaction was then started by addition of 3 μl of a solution of adenosine triphosphate (ATP, 1.67 mM=final concentration in 5 μl of assay volume: 1 mM) and peptide substrate (0.83 μM=final concentration in 5 μl assay volume: 0.5 μM) in assay buffer, and the resulting mixture was incubated at 22° C. for the reaction time of 45 min. The concentration of the IRAK4 was adjusted to the respective activity of the enzyme and set such that the assay was carried out in the linear range. Typical concentrations were in the order of about 0.2 nM. The reaction was stopped by addition of 5 μl of a solution of TR-FRET detection reagents [0.1 μM streptavidin-XL665 (Cisbio Bioassays; France, catalogue No. 610SAXLG)] and 1.5 nM anti-phosphoserine antibody [Merck Millipore, “STK Antibody”, catalogue No. 35-002] and 0.6 nM LANCE EU-W1024-labelled anti-mouse-IgG antibody (Perkin-Elmer, product No. AD0077; alternatively, it is possible to use a terbium cryptate-labelled anti-mouse-IgG antibody from Cisbio Bioassays) in aqueous EDTA solution (100 mM EDTA, 0.4% [w/v] bovine serum albumin [BSA] in 25 mM HEPES pH 7.5).
The resulting mixture was incubated at 22° C. for 1 h to allow formation of a complex of the biotinylated phosphorylated substrate and the detection reagents. The amount of the phosphorylated substrate was then evaluated by measuring the resonance energy transfer from europium chelate-labelled anti-mouse-IgG antibody to streptavidin-XL665. To this end, the fluorescence emissions at 620 nm and 665 nm were measured after excitation at 350 nm in a TR-FRET measuring instrument, for example a Rubystar (BMG Labtechnologies, Offenburg, Germany) or a Viewlux (Perkin-Elmer). The ratio of the emissions at 665 nm and 622 nm was taken as a measure of the amount of phosphorylated substrate. The data were normalized (enzyme reaction without test substance=0% inhibition; all other assay components but no enzyme=100% inhibition). Typically, the test substances were tested on the same microtitre plates at 11 different concentrations in the range from 20 μM to 0.073 nM (20 μM, 5.7 μM, 1.6 μM, 0.47 μM, 0.13 μM, 38 nM, 11 nM, 3.1 nM, 0.89 nM, 0.25 nM and 0.073 nM). The dilution series were prepared prior to the assay (2 mM to 7.3 nM in 100% DMSO) by serial dilutions. The IC50 values were calculated using a 4-parameter fit.
As to `COC(=O)c1cc2nn(C3CCOCC3)cc2cc1NC(=O)c1cccc(C(F)(F)F)n1` [Example 33, Methyl 2-(tetrahydro-2H-pyran-4-yl)-5-({[6-(trifluoromethyl)pyridin-2-yl]carbonyl}amino)-2H-indazole-6-carboxylate], the midpoint of inhibition, the IC50, lay at 11 nM.
Compound `COc1cc2nn(C3CCN(CCN(C)C)CC3)cc2cc1NC(=O)c1cccc(C(F)(F)F)n1` [Example 9, N-(2-{1-[2-(Dimethylamino)ethyl]piperidin-4-yl}-6-methoxy-2H-indazol-5-yl)-6-(trifluoromethyl)pyridine-2-carboxamide] came in with an IC50 of 1 nM.
`COc1cc2nn(C3CCN(S(=O)(=O)NC(C)=O)CC3)cc2cc1NC(=O)c1cccc(C(F)(F)F)n1` [Example 8, N-{2-[1-(Acetylsulphamoyl)piperidin-4-yl]-6-methoxy-2H-indazol-5-yl}-6-(trifluoromethyl)pyridine-2-carboxamide] registered a concentration for half-maximal inhibition (IC50) of 8 nM.
Still for that read-out and setting: under `COc1cc2nn(C3CCOCC3)cc2cc1NC(=O)c1csc(C)n1` [Example 25, N-[6-Methoxy-2-(tetrahydro-2H-pyran-4-yl)-2H-indazol-5-yl]-2-methyl-1,3-thiazole-4-carboxamide] stands 10 nM.
Consider `CN1CCC(n2cc3cc(NC(=O)c4cccc(C(F)(F)F)n4)c(C(N)=O)cc3n2)CC1` [Example 57, 2-(1-Methylpiperidin-4-yl)-5-({[6-(trifluoromethyl)pyridin-2-yl]carbonyl}amino)-2H-indazole-6-carboxamide], for which the IC50 worked out at 2 nM.
`COc1cc2nn(C3CCOCC3)cc2cc1NC(=O)c1nc(C(F)(F)F)cs1` [Example 47, N-[6-Methoxy-2-(tetrahydro-2H-pyran-4-yl)-2H-indazol-5-yl]-4-(trifluoromethyl)-1,3-thiazole-2-carboxamide] displayed an IC50 of 65 nM.
`COC(=O)c1cc2nn(C3CCN(C)CC3)cc2cc1NC(=O)c1cccc(C(F)(F)F)n1` [Example 55, Methyl 2-(1-methylpiperidin-4-yl)-5-({[6-(trifluoromethyl)pyridin-2-yl]carbonyl}amino)-2H-indazole-6-carboxylate]: the IC50 came out at 1 nM.
For the compound `O=C(Nc1cc2cn(C3CCOCC3)nc2cc1Cl)c1nc(C(F)(F)F)cs1` [Example 50, N-[6-Chloro-2-(tetrahydro-2H-pyran-4-yl)-2H-indazol-5-yl]-4-(trifluoromethyl)-1,3-thiazole-2-carboxamide], it took 496 nM to reach half-maximal inhibition (IC50).
The same measure, in the same setting: under `COc1cc2nn(C3CCS(=O)(=O)CC3)cc2cc1NC(=O)c1cccc(C(F)(F)F)n1` [Example 11, N-[2-(1,1-Dioxidotetrahydro-2H-thiopyran-4-yl)-6-methoxy-2H-indazol-5-yl]-6-(trifluoromethyl)pyridine-2-carboxamide] stands 3 nM; under `COc1cc2nn(C3CCN(C4CCN(C)CC4)CC3)cc2cc1NC(=O)c1cccc(C(F)(F)F)n1` [Example 6, N-[6-Methoxy-2-(1′-methyl-1,4′-bipiperidin-4-yl)-2H-indazol-5-yl]-6-(trifluoromethyl)pyridine-2-carboxamide], 2 nM.
`O=C(Nc1cc2cn(C3CCNCC3)nc2cc1C(=O)O)c1cccc(C(F)(F)F)n1` [Example 54, 2-(Piperidin-4-yl)-5-({[6-(trifluoromethyl)pyridin-2-yl]carbonyl}amino)-2H-indazole-6-carboxylic Acid] displayed a half-maximal inhibitory concentration (IC50) of 75 nM.
Consider `CC(C)(O)CCN1CCC(n2cc3cc(NC(=O)c4cccc(C(F)(F)F)n4)c(C(N)=O)cc3n2)CC1` [Example 56, 2-[1-(3-Hydroxy-3-methylbutyl)piperidin-4-yl]-5-({[6-(trifluoromethyl)pyridin-2-yl]carbonyl}amino)-2H-indazole-6-carboxamide], for which it took 4 nM to reach half-maximal inhibition (IC50).
Same read-out and setting: then `COc1cc2nn(C3CCOCC3)cc2cc1NC(=O)c1nc(-c2ccncc2)no1` [Example 48, N-[6-Methoxy-2-(tetrahydro-2H-pyran-4-yl)-2H-indazol-5-yl]-3-(pyridin-4-yl)-1,2,4-oxadiazole-5-carboxamide], with 691 nM; and `COCCN1CCC(n2cc3cc(NC(=O)c4cccc(C(F)(F)F)n4)c(OC)cc3n2)CC1` [Example 58, N-{6-Methoxy-2-[1-(2-methoxyethyl)piperidin-4-yl]-2H-indazol-5-yl}-6-(trifluoromethyl)pyridine-2-carboxamide], with 2 nM; and `COc1cc2nn(C3CCOCC3)cc2cc1NC(=O)c1nc(C)no1` [Example 49, N-[6-Methoxy-2-(tetrahydro-2H-pyran-4-yl)-2H-indazol-5-yl]-3-methyl-1,2,4-oxadiazole-5-carboxamide], with 3780 nM.
`COc1cc2nn(C3CCOCC3)cc2cc1NC(=O)c1ccn(C(F)F)n1` [Example 51, 1-(Difluoromethyl)-N-[6-methoxy-2-(tetrahydro-2H-pyran-4-yl)-2H-indazol-5-yl]-1H-pyrazole-3-carboxamide] registered an IC50 of 6 nM.
Still for that read-out and setting: under `CC(C)(O)c1cc2nn([C@H]3CCS(=O)(=O)C3)cc2cc1NC(=O)c1cccc(C(F)(F)F)n1` [Example 41, N-{2-[(3S)-1,1-Dioxidotetrahydrothiophen-3-yl]-6-(2-hydroxypropan-2-yl)-2H-indazol-5-yl}-6-(trifluoromethyl)pyridine-2-carboxamide] stands 16 nM.
On the same count and under the same terms, then `NC(=O)c1cc2nn(C3CCNCC3)cc2cc1NC(=O)c1cccc(C(F)(F)F)n1` [Example 53, 2-(Piperidin-4-yl)-5-({[6-(trifluoromethyl)pyridin-2-yl]carbonyl}amino)-2H-indazole-6-carboxamide], with 1 nM.

The subject of another test is secretion of TNF-α in THP-1 cells. Put plainly: TNF-α secretion in THP-1 cells (LPS-triggered). It is filed as cell-based, human. The settings on record: Homo sapiens, THP-1, 17 h, LPS 0.05 μg/ml, read-out: IC50 with respect to the secretion of TNF-α in THP-1 cells. The method, then: TNF-α Secretion in THP-1 Cells
With the aid of this test, it is possible to test substances for their ability to inhibit secretion of TNF-α (tumour necrosis factor alpha) in THP-1 cells (human monocytic acute leukaemia cell line). TNF-α is a cytokine involved in inflammatory processes. In this test, TNF-α secretion is triggered by incubation with bacterial lipopolysaccharide (LPS).
THP-1 cells are kept in continuous suspension cell culture [RPMI 1460 medium with L-Glutamax (Gibco, Cat No. 61870-044) supplemented with foetal calf serum (FCS) 10% (Invitrogen, Cat No. 10082-147), 1% penicillin/streptomycin (Gibco BRL, Cat No. 15140-114)] and should not exceed a cell concentration of 1×10^6 cells/ml. The assay is carried out in cell culture medium (RPMI 1460 medium with L-Glutamax supplemented with FCS 10%).
In each case 2-2.5 μl of the cell suspension (corresponds to 4000 cells) per well were dispensed into a 384-well test plate (Greiner, Cat No. 784076), in each of which 40-50 nl substance had been dissolved in 100% DMSO. This was done using […] in the range from 20 μM to 0.073 nM for each substance. The cells were incubated at room temperature for 15 min. 2-2.5 μl of 0.1 μg/ml LPS (Sigma, Escherichia coli 055:B5, Cat. No. L5418) dissolved in cell culture medium (final concentration 0.05 μg/ml) were then dispensed into each well. As neutral control, cells were treated with 0.05 μg/ml LPS and 1% DMSO and, as inhibitor control, with 1% DMSO only.
The plates were centrifuged at 80 g for 30 s and incubated at 37° C., 5% CO2 and 95% atmospheric humidity for 17 h. The amount of TNF-α was determined using the TNF-alpha HTRF Detection Kit (Cisbio, Cat No. 62TNFPEB/C). To this end, 2 μl of the detection solution in each case, consisting of anti-TNF-α-XL665 conjugate and anti-TNF-α-cryptate conjugate dissolved in the reconstitution buffer in accordance with the manufacturer's instructions, were added for the HTRF (Homogeneous Time-Resolved Fluorescence) test. After the addition, the mixture was incubated either at room temperature for 3 h or at 4° C. overnight. The signals were then read at 620/665 nm using an HTRF-enabled measuring instrument such as the BMG PheraStar.
The activity of the substances is expressed as the ratio between neutral and inhibitor control in percent. The IC50 values were calculated using a 4-parameter fit.
Turning to `COC(=O)c1cc2nn(C3CCOCC3)cc2cc1NC(=O)c1cccc(C(F)(F)F)n1` [Example 33, Methyl 2-(tetrahydro-2H-pyran-4-yl)-5-({[6-(trifluoromethyl)pyridin-2-yl]carbonyl}amino)-2H-indazole-6-carboxylate], the IC50 was determined as 1800 nM.
For `COc1cc2nn(C3CCN(S(=O)(=O)NC(C)=O)CC3)cc2cc1NC(=O)c1cccc(C(F)(F)F)n1` [Example 8, N-{2-[1-(Acetylsulphamoyl)piperidin-4-yl]-6-methoxy-2H-indazol-5-yl}-6-(trifluoromethyl)pyridine-2-carboxamide], the 50% inhibitory concentration (IC50) stood at 520 nM.
On to `COc1cc2nn(C3CCOCC3)cc2cc1NC(=O)c1csc(C)n1` [Example 25, N-[6-Methoxy-2-(tetrahydro-2H-pyran-4-yl)-2H-indazol-5-yl]-2-methyl-1,3-thiazole-4-carboxamide], for which the concentration for half-maximal inhibition (IC50) was determined as 840 nM.
